This assay addresses full-length USP7 (Homo sapiens (Human), UniProt Q93009). Nature of the assay: Enzymatic assay to determine IC50 of USP7 inhibitors (Ubiquitin-Rhodamine 110 cleavage). Format: biochemical. The conditions noted are these: for inhibition at 1 µM: read-out: percent value of inhibition of USP7 activity; for IC50: 0.5 nM USP7, 0.5 μM Ubiquitin-Rhodamine 110, 45 min at 37° C. On the procedure: For the inhibitors disclosed herein, their potency was measured using the following method.
A 45 μl reaction volume containing full-length USP7 (0.5 nM) in 50 mM HEPES pH 7.5, 150 mM NaCl, 1 mM DTT, 1 mg/ml BSA and 0.05% Tween20 was assembled in wells of 96 well half area black flat bottom plates. Test compounds were first dissolved to 25 mM stocks in DMSO and subsequently introduced to enzyme 15 min after USP7 incubation with DTT at room temperature. The enzymatic reaction was started by adding 0.5 μM Ubiquitin-Rhodamine 110 (final concentration) and allowed to proceed for 45 min at 37° C., 250 RPM shaking before Rhodamine fluorescence (485 nm excitation/520 nm emission) was measured using Tecan Spark M10 plate reader.

Setting [1] is: at 1 μM of the test compound, given where IC50 not determined yet.

Counter-ions that a name gives are not always drawn. Like-named read-outs stand apart in the source and are kept apart here. Where only a bound is given, the exact number is not on record here.

Broadly, the inhibition is the drop in the measured response relative to a control, in per cent. One may read the IC50 as the midpoint of a concentration-inhibition curve. Low readings indicate greater potency, high ones weaker potency.

full-length USP7, sequence (Q93009 whole entry): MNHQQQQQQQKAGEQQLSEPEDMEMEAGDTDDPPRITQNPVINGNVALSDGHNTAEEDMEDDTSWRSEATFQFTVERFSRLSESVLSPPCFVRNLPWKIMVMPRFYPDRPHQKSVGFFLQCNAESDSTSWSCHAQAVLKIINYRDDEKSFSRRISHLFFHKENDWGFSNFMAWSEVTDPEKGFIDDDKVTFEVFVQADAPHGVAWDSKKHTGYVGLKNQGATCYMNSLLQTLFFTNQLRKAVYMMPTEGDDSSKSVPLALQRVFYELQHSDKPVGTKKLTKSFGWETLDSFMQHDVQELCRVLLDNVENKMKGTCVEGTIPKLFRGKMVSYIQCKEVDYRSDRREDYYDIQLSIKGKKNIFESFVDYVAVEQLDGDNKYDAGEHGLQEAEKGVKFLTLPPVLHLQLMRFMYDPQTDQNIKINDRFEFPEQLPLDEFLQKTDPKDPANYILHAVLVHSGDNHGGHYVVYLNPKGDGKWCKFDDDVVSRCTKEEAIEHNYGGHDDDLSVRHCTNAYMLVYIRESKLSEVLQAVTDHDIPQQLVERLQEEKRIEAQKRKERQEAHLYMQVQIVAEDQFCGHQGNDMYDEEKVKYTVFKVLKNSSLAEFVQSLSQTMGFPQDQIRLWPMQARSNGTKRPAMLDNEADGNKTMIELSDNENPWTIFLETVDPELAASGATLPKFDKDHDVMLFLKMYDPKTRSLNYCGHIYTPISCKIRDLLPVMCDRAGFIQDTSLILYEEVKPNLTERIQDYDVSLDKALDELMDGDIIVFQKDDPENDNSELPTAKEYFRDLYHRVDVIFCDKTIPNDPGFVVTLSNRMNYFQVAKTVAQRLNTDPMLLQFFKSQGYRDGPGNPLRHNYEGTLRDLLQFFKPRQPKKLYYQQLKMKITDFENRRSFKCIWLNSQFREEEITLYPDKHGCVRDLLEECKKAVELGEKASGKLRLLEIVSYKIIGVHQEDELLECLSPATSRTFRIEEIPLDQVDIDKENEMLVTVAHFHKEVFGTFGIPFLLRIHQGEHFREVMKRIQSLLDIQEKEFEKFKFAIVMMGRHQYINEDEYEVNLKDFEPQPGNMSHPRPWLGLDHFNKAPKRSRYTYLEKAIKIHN

On to `Cc1cc(C(F)(F)F)nc(-c2ccnc3cc(CN4C(=O)C5C(C4=O)C5(C)C)sc23)c1C(=O)N1C[C@@H](F)[C@@H](N)C1` (stereo partly drawn) [Example 171, 3-((7-(3-((3S,4R)-3-amino-4-fluoropyrrolidine-1-carbonyl)-4-methyl-6-(trifluoromethyl)pyridin-2-yl)thieno[3,2-b]pyridin-2-yl)methyl)-6,6-dimethyl-3-azabicyclo[3.1.0]hexane-2,4-dione hydrochloride], for which the inhibition at 1 µM under setting [1] was in the range of 50 to 70%.
As to `Cc1nc(C#N)cc(-c2ccnc3cc(CN4C(=O)C5C(C4=O)C5(C)C)sc23)c1C(=O)N1CCC(F)(F)C1` (stereo not drawn) [Example 10, 5-(3,3-difluoropyrrolidine-1-carbonyl)-4-(2-((6,6-dimethyl-2,4-dioxo-3-azabicyclo[3.1.0]hexan-3-yl)methyl)thieno[3,2-b]pyridin-7-yl)-6-methylpicolinonitrile 2,2,2-trifluoroacetate], the IC50 is 1000 to 10000 nM.
For the compound `CC1(C)C2C(=O)N(Cc3cc4nccc(-c5cc(C(F)(F)F)n(CC6CNCCO6)n5)c4s3)C(=O)C21` (stereo not drawn) [Example 6, 6,6-dimethyl-3-((7-(1-(morpholin-2-ylmethyl)-5-(trifluoromethyl)-1H-pyrazol-3-yl)thieno[3,2-b]pyridin-2-yl)methyl)-3-azabicyclo[3.1.0]hexane-2,4-dione 2,2,2-trifluoroacetate], the inhibition at 1 µM was less than 20%.
Compound `Cc1cc(C#N)nc(-c2ccnc3cc(CN4C(=O)C5C(C4=O)C5(C)C)sc23)c1C(=O)N1CCNC(C)(C)C1` (stereo not drawn) [Example 53, 6-(2-((6,6-dimethyl-2,4-dioxo-3-azabicyclo[3.1.0]hexan-3-yl)methyl)thieno[3,2-b]pyridin-7-yl)-5-(3,3-dimethylpiperazine-1-carbonyl)-4-methylpicolinonitrile hydrochloride] returned an IC50 of 1000 to 10000 nM.
The same measure, in the same setting: the result for `Cc1cc(C#N)nc(-c2ccnc3cc(CN4C(=O)C5C(C4=O)C5(C)C)sc23)c1NC1CNC1` (stereo not drawn) [Example 24, 5-(azetidin-3-ylamino)-6-(2-((6,6-dimethyl-2,4-dioxo-3-azabicyclo[3.1.0]hexan-3-yl)methyl)thieno[3,2-b]pyridin-7-yl)-4-methylpicolinonitrile 2,2,2-trifluoroacetate] reads less than 500 nM.
Consider `Cc1nc(C#N)cc(-c2ccnc3cc(CN4C(=O)C5C(C4=O)C5(C)C)sc23)c1C(=O)N1CCC(F)(F)CC1` (stereo not drawn) [Example 13, 5-(4,4-difluoropiperidine-1-carbonyl)-4-(2-((6,6-dimethyl-2,4-dioxo-3-azabicyclo[3.1.0]hexan-3-yl)methyl)thieno[3,2-b]pyridin-7-yl)-6-methylpicolinonitrile 2,2,2-trifluoroacetate], for which the inhibition at 1 µM under setting [1] lay in the range of 20 to 49%.
In the case of “6,6-dimethyl-3-((7-(2-methyl-3-(pyrrolidin-3-ylamino)-6-(trifluoromethyl)pyridin-4-yl)thieno[3,2-b]pyridin-2-yl)methyl)-3-azabicyclo[3.1.0]hexane-2,4-dione 2,2,2-trifluoroacetate [Example 25]”, the IC50 was less than 500 nM.
In the case of `CN[C@H]1CCN(C(=O)c2c(C)cc(C(F)(F)F)nc2-c2ccnc3c(F)c(CN4C(=O)C5C(C4=O)C5(C)C)sc23)C1` (stereo partly drawn) [Example 174, 3-((3-fluoro-7-(4-methyl-3-((S)-3-(methylamino)pyrrolidine-1-carbonyl)-6-(trifluoromethyl)pyridin-2-yl)thieno[3,2-b]pyridin-2-yl)methyl)-6,6-dimethyl-3-azabicyclo[3.1.0]hexane-2,4-dione hydrochloride], the inhibition at 1 µM under setting [1] was in the range of 50 to 70%.
Compound `Cc1cc(C(F)(F)F)nc(-c2ccnc3cc(CN4C(=O)C5C(C4=O)C5(C)C)sc23)c1C(=O)N1C[C@@H](N)C2(CC2)C1` (stereo partly drawn) [Example 173, 3-((7-(3-((S)-7-amino-5-azaspiro[2.4]heptane-5-carbonyl)-4-methyl-6-(trifluoromethyl)pyridin-2-yl)thieno[3,2-b]pyridin-2-yl)methyl)-6,6-dimethyl-3-azabicyclo[3.1.0]hexane-2,4-dione hydrochloride] yielded an IC50 of less than 500 nM.
Still for that read-out and setting: with `Cc1cc(C#N)nc(-c2ccnc3cc(CN4C(=O)C5C(C4=O)C5(C)C)sc23)c1C(=O)N1CCNC[C@H]1C` (stereo partly drawn) [Example 54, 6-(2-((6,6-dimethyl-2,4-dioxo-3-azabicyclo[3.1.0]hexan-3-yl)methyl)thieno[3,2-b]pyridin-7-yl)-4-methyl-5-((R)-2-methylpiperazine-1-carbonyl)picolinonitrile hydrochloride] the figure was 500 to 1000 nM; with `Cc1cc(C(F)(F)F)nc(-c2ccnc3cc(CN4C(=O)C5C(C4=O)C5(C)C)sc23)c1C(=O)N1[C@H](C)CNC[C@H]1C` (stereo partly drawn) [Example 142, 3-((7-(3-((2R,6R)-2,6-dimethylpiperazine-1-carbonyl)-4-methyl-6-(trifluoromethyl)pyridin-2-yl)thieno[3,2-b]pyridin-2-yl)methyl)-6,6-dimethyl-3-azabicyclo[3.1.0]hexane-2,4-dione 2,2,2-trifluoroacetate], 1000 to 10000 nM.
On the same count and under the same terms, the result for `Cc1cc(C(F)(F)F)nc(-c2ccnc3cc(CN4C(=O)C5C(C4=O)C5(C)C)sc23)c1C(=O)N1CC[C@H](CF)C1` (stereo partly drawn) [Example 105, 3-((7-(3-((S)-3-(fluoromethyl)pyrrolidine-1-carbonyl)-4-methyl-6-(trifluoromethyl)pyridin-2-yl)thieno[3,2-b]pyridin-2-yl)methyl)-6,6-dimethyl-3-azabicyclo[3.1.0]hexane-2,4-dione hydrochloride] reads less than 500 nM; that for `Cc1cc(C(F)(F)F)nc(-c2ccnc3cc(CN4C(=O)C5C(C4=O)C5(C)C)sc23)c1C[C@@H]1CN(C)CCO1` (stereo partly drawn) [Example 98, 6,6-dimethyl-3-((7-(4-methyl-3-(((R)-4-methylmorpholin-2-yl)methyl)-6-(trifluoromethyl)pyridin-2-yl)thieno[3,2-b]pyridin-2-yl)methyl)-3-azabicyclo[3.1.0]hexane-2,4-dione dihydrochloride], less than 500 nM.
The same measure, in the same setting: the result for `Cc1cc(C(F)(F)F)nc(-c2ccnc3cc(CN4C(=O)C5C(C4=O)C5(C)C)sc23)c1NC1CC2(CNC2)C1` (stereo not drawn) [Example 132, 3-((7-(3-((2-azaspiro[3.3]heptan-6-yl)amino)-4-methyl-6-(trifluoromethyl)pyridin-2-yl)thieno[3,2-b]pyridin-2-yl)methyl)-6,6-dimethyl-3-azabicyclo[3.1.0]hexane-2,4-dione 2,2,2-trifluoroacetate] reads less than 500 nM.
In the case of `Cc1cc(Cl)nc(-c2ccnc3cc(CN4C(=O)C5C(C4=O)C5(C)C)sc23)c1C(=O)N1CCNCC1` (stereo not drawn) [Example 135, 3-((7-(6-chloro-4-methyl-3-(piperazine-1-carbonyl)pyridin-2-yl)thieno[3,2-b]pyridin-2-yl)methyl)-6,6-dimethyl-3-azabicyclo[3.1.0]hexane-2,4-dione 2,2,2-trifluoroacetate], the inhibition at 1 µM was less than 20%.
On to `Cc1cc(C(F)(F)F)nc(-c2ccnc3cc(CN4C(=O)C5C(C4=O)C5(C)C)sc23)c1CN1CCN(C)CC1=O` (stereo not drawn) [Example 41, 6,6-dimethyl-3-((7-(4-methyl-3-((4-methyl-2-oxopiperazin-1-yl)methyl)-6-(trifluoromethyl)pyridin-2-yl)thieno[3,2-b]pyridin-2-yl)methyl)-3-azabicyclo[3.1.0]hexane-2,4-dione dihydrochloride], for which the inhibition at 1 µM under setting [1] is less than 20%.
Compound `Cc1nc(Cl)cc(-c2ccnc3cc(CN4C(=O)C5C(C4=O)C5(C)C)sc23)c1NC1CCNC1` (racemic) [Example 125, 3-((7-(6-chloro-2-methyl-3-(pyrrolidin-3-ylamino)pyridin-4-yl)thieno[3,2-b]pyridin-2-yl)methyl)-6,6-dimethyl-3-azabicyclo[3.1.0]hexane-2,4-dione 2,2,2-trifluoroacetate] displayed an IC50 of less than 500 nM.
As for `CC1(C)C2C(=O)N(Cc3cc4nccc(-c5cc(F)cnc5O[C@H]5CCCNC5)c4s3)C(=O)C21` (stereo partly drawn) [Example 152, 3-((7-(5-fluoro-2-(((S)-piperidin-3-yl)oxy)pyridin-3-yl)thieno[3,2-b]pyridin-2-yl)methyl)-6,6-dimethyl-3-azabicyclo[3.1.0]hexane-2,4-dione dihydrochloride], the inhibition at 1 µM under setting [1] was less than 20%.
`Cc1cc(C(F)(F)F)nc(-c2ccnc3cc(CN4C(=O)C5C(C4=O)C5(C)C)sc23)c1C(=O)N1CCN(C)C[C@@H]1C` (stereo partly drawn) [Example 79, 3-((7-(3-((S)-2,4-dimethylpiperazine-1-carbonyl)-4-methyl-6-(trifluoromethyl)pyridin-2-yl)thieno[3,2-b]pyridin-2-yl)methyl)-6,6-dimethyl-3-azabicyclo[3.1.0]hexane-2,4-dione hydrochloride] came in with an IC50 of less than 500 nM.
Same read-out and setting: with `Cc1cc(C(F)(F)F)nc(-c2ccnc3cc(CN4C(=O)C5C(C4=O)C5(C)C)sc23)c1C(=O)N1CC[C@H](NC(C)C)C1` (stereo partly drawn) [Example 74, 3-((7-(3-((S)-3-(isopropylamino)pyrrolidine-1-carbonyl)-4-methyl-6-(trifluoromethyl)pyridin-2-yl)thieno[3,2-b]pyridin-2-yl)methyl)-6,6-dimethyl-3-azabicyclo[3.1.0]hexane-2,4-dione dihydrochloride] the figure was less than 500 nM.
Still for that read-out and setting: with `Cc1cc(C#N)nc(-c2ccnc3cc(CN4C(=O)C5C(C4=O)C5(C)C)sc23)c1C(=O)NC1CNC1` (stereo not drawn) [Example 56, N-(azetidin-3-yl)-6-cyano-2-(2-((6,6-dimethyl-2,4-dioxo-3-azabicyclo[3.1.0]hexan-3-yl)methyl)thieno[3,2-b]pyridin-7-yl)-4-methylnicotinamide hydrochloride] the figure was 1000 to 10000 nM.

Source of the values: patent US12404279B2, “Deubiquitinase inhibitors and methods of use thereof” (Molecure S.A., priority 2021, dated 2025).
